In patent US8685977B2, “Chemical compounds” (Pfizer Limited, priority 2010, dated 2014) one finds IC50 data, which are given here for 34 compounds.

Some results are limits rather than exact numbers.

The assay deals with T1, Nav1.7 (or SCN9A) channel (Homo sapiens, UniProt Q15858).
T1 construct: expressed in transfected cells
T1 sequence (Q15858 whole entry): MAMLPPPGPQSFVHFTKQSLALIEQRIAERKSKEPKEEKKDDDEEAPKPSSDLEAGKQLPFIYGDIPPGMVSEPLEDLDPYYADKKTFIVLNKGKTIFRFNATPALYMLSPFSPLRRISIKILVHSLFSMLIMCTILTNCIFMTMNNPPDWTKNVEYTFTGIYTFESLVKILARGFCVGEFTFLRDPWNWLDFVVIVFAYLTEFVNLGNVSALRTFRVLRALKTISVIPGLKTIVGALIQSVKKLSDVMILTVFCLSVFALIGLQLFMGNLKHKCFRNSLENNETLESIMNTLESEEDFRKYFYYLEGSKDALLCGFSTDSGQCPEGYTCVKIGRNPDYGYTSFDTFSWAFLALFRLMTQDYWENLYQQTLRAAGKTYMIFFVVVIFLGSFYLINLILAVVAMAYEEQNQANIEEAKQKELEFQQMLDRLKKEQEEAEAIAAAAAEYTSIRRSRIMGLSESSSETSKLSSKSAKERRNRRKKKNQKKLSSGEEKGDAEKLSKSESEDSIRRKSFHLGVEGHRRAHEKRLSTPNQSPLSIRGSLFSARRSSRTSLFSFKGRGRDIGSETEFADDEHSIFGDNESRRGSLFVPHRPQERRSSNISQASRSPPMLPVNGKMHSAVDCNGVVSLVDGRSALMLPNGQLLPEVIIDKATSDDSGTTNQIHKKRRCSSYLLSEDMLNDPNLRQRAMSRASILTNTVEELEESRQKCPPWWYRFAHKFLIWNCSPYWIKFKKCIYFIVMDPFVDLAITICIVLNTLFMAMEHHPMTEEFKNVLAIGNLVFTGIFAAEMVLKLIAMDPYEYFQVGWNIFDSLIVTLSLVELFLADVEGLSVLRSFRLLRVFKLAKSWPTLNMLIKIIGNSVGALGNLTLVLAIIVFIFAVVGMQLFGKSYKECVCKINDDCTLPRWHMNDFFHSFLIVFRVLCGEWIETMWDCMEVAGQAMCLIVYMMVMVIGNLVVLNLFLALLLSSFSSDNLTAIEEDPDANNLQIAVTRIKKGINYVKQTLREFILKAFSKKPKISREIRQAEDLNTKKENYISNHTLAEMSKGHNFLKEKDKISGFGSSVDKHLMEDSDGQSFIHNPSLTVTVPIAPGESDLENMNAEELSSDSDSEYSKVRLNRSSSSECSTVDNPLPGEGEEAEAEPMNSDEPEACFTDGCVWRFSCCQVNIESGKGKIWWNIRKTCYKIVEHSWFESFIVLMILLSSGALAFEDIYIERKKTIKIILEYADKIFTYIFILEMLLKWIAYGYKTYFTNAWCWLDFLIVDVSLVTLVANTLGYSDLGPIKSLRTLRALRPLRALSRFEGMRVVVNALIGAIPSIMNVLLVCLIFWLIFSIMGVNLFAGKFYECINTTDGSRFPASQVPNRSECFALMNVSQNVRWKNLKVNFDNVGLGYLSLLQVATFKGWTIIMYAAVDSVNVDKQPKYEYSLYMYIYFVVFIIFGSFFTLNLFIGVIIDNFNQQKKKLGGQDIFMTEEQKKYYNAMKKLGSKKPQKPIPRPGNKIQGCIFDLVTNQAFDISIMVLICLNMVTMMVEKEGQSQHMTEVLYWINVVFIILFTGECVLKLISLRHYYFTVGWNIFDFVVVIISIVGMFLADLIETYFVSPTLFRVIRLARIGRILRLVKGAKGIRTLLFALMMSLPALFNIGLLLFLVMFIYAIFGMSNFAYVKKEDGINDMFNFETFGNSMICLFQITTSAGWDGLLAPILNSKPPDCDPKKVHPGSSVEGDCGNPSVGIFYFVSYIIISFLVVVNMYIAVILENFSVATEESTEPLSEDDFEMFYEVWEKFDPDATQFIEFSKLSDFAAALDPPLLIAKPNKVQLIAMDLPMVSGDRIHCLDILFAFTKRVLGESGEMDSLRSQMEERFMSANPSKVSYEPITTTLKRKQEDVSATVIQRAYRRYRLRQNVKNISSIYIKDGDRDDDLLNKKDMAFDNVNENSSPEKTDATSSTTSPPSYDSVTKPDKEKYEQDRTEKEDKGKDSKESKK
Briefly: Nav1.7 PatchXpress 7000 automated electrophysiology assay (HEK cells stably expressing hSCN9A). Conditions: voltage-clamped at V1/2 of inactivation, read-out: Nav1.7 EIC50. Type of assay: cell-based. On the procedure:
The ability of the compounds of formula (I) to block the Nav1.7 (or SCN9A) channel was measured using the assays described below.
Human Embryonic Kidney (HEK) cells were transfected with an hSCN9A construct using lipofectamine reagent (Invitrogen), using standard techniques. Cells stably expressing the hSCN9A constructs were identified by their resistance to G-418 (400 μg/ml). Clones were screened for expression using the whole-cell voltage-clamp technique.
HEK cells stably transfected with hSCN9A were maintained in DMEM medium supplemented with 10% heat-inactivated fetal bovine serum and 400 μg/ml G-418 in an incubator at 37° C. with a humidified atmosphere of 10% CO2. For HTS, cells were harvested from flasks by trypsinization and replated in an appropriate multi-well plate (typically 96 or 384 wells/plate) such that confluence would be achieved within 24 hours of plating. For electrophysiological studies, cells were removed from the culture flask by brief trypsinization and re-plated at low density onto glass cover slips. Cells were typically used for electrophysiological experiments within 24 to 72 hours after plating.
Cover slips containing HEK cells expressing hSCN9A were placed in a bath on the stage of an inverted microscope and perfused (approximately 1 ml/minutes) with extracellular solution of the following composition: 138 mM NaCl, 2 mM CaCl2, 5.4 mM KCl, 1 mM MgCl2, 10 mM glucose, and 10 mM HEPES, pH 7.4, with NaOH. […] The osmolarity of the extracellular and intracellular solutions was 300 mOsm/kg and 295 mOsm/kg, respectively. All recordings were made at room temperature (22-24° C.) using AXOPATCH 200B amplifiers and PCLAMP software (Axon Instruments, Burlingame, Calif.).
HEK cells stably transfected with hSCN9A were viewed under Hoffman contrast optics and placed in front of an array of flow pipes emitting either control or compound-containing extracellular solutions. All compounds were dissolved in dimethyl sulfoxide to make 10 mM stock solutions, which were then diluted into extracellular solution to attain the final concentrations desired. […] The voltage-dependence of inactivation was determined by applying a series of depolarizing prepulses (8 sec long in 10 mV increments) from a negative holding potential. The voltage was then immediately stepped to 0 mV to assess the magnitude of the sodium current. Currents elicited at 0 mV were plotted as a function of prepulse potential to allow estimation of the voltage at which 50% of the channels were inactivated (midpoint of inactivation or V1/2). Compounds were tested for their ability to inhibit hSCN9A sodium channels by activating the channel with a 20 msec voltage step to 0 mV following an 8 second conditioning prepulse to the empirically determined V1/2. Compound effect (% inhibition) was determined by difference in current amplitude before and after application of test compounds. For ease of comparison, “estimated IC-50” (EIC50) values were calculated from single point electrophysiology data by the following equation, (tested concentration, uM)×(100-% inhibition/% inhibition). Inhibition values <20% and >80% were excluded from the calculation.
Electrophysiological assays were conducted with PatchXpress 7000 hardware and associated software (Molecular Devices Corp). All assay buffers and solutions were identical to those used in conventional whole-cell voltage clamp experiments described above. hSCN9A cells were grown as above to 50%-80% confluency and harvested by trypsinization. Trypsinized cells were washed and resuspended in extracellular buffer at a concentration of 1×10^6 cells/ml. The onboard liquid handling facility of the PatchXpress was used for dispensing cells and application of test compounds. Determination of the voltage midpoint of inactivation was as described for conventional whole-cell recordings. Cells were then voltage-clamped to the empirically determined V1/2 and current was activated by a 20 msec voltage step to 0 mV. […]
Consider `Cc1cccc(C)c1Oc1cc(F)c(C(=O)NS(C)(=O)=O)cc1F` [Example 104, 4-(2,6-dimethylphenoxy)-2,5-difluoro-N-(methylsulfonyl)benzamide], for which the IC50 is more than 3 µM.
Next, `CS(=O)(=O)NC(=O)c1ccc(Oc2ccc(Cl)c(C(F)(F)F)c2)cc1Cl` [Example 43, 2-chloro-4-[4-chloro-3-(trifluoromethyl)phenoxy]-N-(methylsulfonyl)benzamide]: 5.8 µM.
Next, `COc1cc(C)ccc1Oc1cc(F)c(C(=O)NS(C)(=O)=O)cc1F` [Example 85, 2,5-difluoro-4-(2-methoxy-4-methylphenoxy)-N-(methylsulfonyl)benzamide]: more than 1 µM; `CCc1cccc(Oc2cc(F)c(C(=O)NS(C)(=O)=O)cc2F)c1` [Example 147, 4-(3-ethylphenoxy)-2,5-difluoro-N-(methylsulfonyl)benzamide]: more than 3 µM.
In the case of `COc1cc(Cl)ccc1Cc1cc(F)c(C(=O)NS(C)(=O)=O)cc1F` [Example 319, 4-(4-Chloro-2-methoxybenzyl)-2,5-difluoro-N-(methylsulfonyl)benzamide], the IC50 came out at 2.5 µM.
Turning to `CS(=O)(=O)NC(=O)c1cc(F)c(Oc2ccccc2OC(F)(F)F)cc1F` [Example 103, 2,5-difluoro-N-(methylsulfonyl)-4-[2-(trifluoromethoxy)phenoxy]benzamide], the IC50 worked out at 3.2 µM.
In the case of `Cc1cccc(Oc2ccc(C(=O)NS(C)(=O)=O)cc2)c1C` [Example 184, 4-(2,3-dimethylphenoxy)-N-(methylsulfonyl)benzamide] it was 24 µM.
In the case of `CS(=O)(=O)NC(=O)c1cc(F)c(Oc2cc(C(F)(F)F)ccc2Cl)cc1F` [Example 121, 4-[2-chloro-5-(trifluoromethyl)phenoxy]-2,5-difluoro-N-(methylsulfonyl)benzamide], the IC50 was more than 1 µM.
As for `CC(C)S(=O)(=O)NC(=O)c1ccc(Oc2ccc(Cl)c(C(F)(F)F)c2)cc1` [Example 76, 4-(4-chloro-3-(trifluoromethyl)phenoxy)-N-(isopropylsulfonyl)benzamide], the IC50 amounted to 0.85 µM.
Turning to `CS(=O)(=O)NC(=O)c1cc(F)c(Oc2ccc(Cl)c(C(F)(F)F)c2)cc1Cl` [Example 77, 2-chloro-4-(4-chloro-3-(trifluoromethyl)phenoxy)-5-fluoro-N-(methylsulfonyl)benzamide], the IC50 was 0.53 µM.
In the case of `CS(=O)(=O)NC(=O)c1cc(F)c(Oc2ccc(Cl)c(F)c2)cc1F` [Example 143, 4-(4-chloro-3-fluorophenoxy)-2,5-difluoro-N-(methylsulfonyl)benzamide], the IC50 worked out at 4.7 µM.
Next, `CS(=O)(=O)NC(=O)c1ccc(Oc2cccc(C#N)c2)c(Cl)c1` [Example 264, 3-chloro-4-(3-cyanophenoxy)-N-(methylsulfonyl)benzamide]: 7 µM.
As for `Cc1cc(Cl)ccc1Oc1ccc(C(=O)NS(C)(=O)=O)cc1` [Example 206, 4-(4-chloro-2-methylphenoxy)-N-(methylsulfonyl)benzamide], the IC50 is 18 µM.
Next, `CS(=O)(=O)NC(=O)c1cc(F)c(Oc2cc(Cl)cc(Cl)c2)cc1F` [Example 101, 4-(3,5-dichlorophenoxy)-2,5-difluoro-N-(methylsulfonyl)benzamide]: 1.5 µM; `COc1ccc(C)cc1Oc1ccc(C(=O)NS(C)(=O)=O)cc1` [Example 185, 4-(2-methoxy-5-methylphenoxy)-N-(methylsulfonyl)benzamide]: 21 µM; `Cc1cc(F)ccc1Oc1ccc(C(=O)NS(C)(=O)=O)cc1` [Example 201, 4-(4-fluoro-2-methylphenoxy)-N-(methylsulfonyl)benzamide]: 20 µM.
Next, `Cc1ccc(F)cc1Oc1ccc(C(=O)NS(C)(=O)=O)cc1` [Example 179, 4-(5-fluoro-2-methylphenoxy)-N-(methylsulfonyl)benzamide]: more than 10 µM; `CS(=O)(=O)NC(=O)c1ccc(Cc2cccc(OC(F)(F)F)c2)cc1` [Example 316, N-(Methylsulfonyl-1)-4-[3-(trifluoromethoxy)benzyl]benzamide]: 1.6 µM; `CS(=O)(=O)NC(=O)c1cc(F)c(Oc2ccc(OC(F)(F)F)cc2)cc1F` [Example 100, 2,5-difluoro-N-(methylsulfonyl)-4-[4-(trifluoromethoxy)phenoxy]benzamide]: 1.1 µM.
Next, `Cc1ccc(Cl)c(Oc2ccc(C(=O)NS(C)(=O)=O)cc2)c1` [Example 180, 4-(2-chloro-5-methylphenoxy)-N-(methylsulfonyl)benzamide]: 32 µM.
In the case of `CS(=O)(=O)NC(=O)c1ccc(Oc2cccc(F)c2)c(C#N)c1` [Example 284, 3-cyano-4-(3-fluorophenoxy)-N-(methylsulfonyl)benzamide], the IC50 was found to be 8.7 µM.
Next, `O=C(NS(=O)(=O)C1CC1)c1ccc(Oc2ccc(Cl)c(C(F)(F)F)c2)cc1` [Example 1, 4-[4-Chloro-3-(trifluoromethyl)phenoxy]-N-(cyclopropylsulfonyl)benzamide]: 0.81 µM.
In the case of `Cn1nccc1-c1cc(Cl)ccc1Oc1ccc(C(=O)NS(C)(=O)=O)cc1` [Example 83, 4-(4-chloro-2-(1-methyl-1H-pyrazol-5-yl)phenoxy)-N-(methylsulfonyl)benzamide] it was more than 3 µM; in that of `Cn1nccc1-c1cc(Cl)ccc1Oc1cc(F)c(C(=O)NS(C)(=O)=O)cc1Cl` [Example 80, 5-chloro-4-[4-chloro-2-(1-methyl-1H-pyrazol-5-yl)phenoxy]-2-fluoro-N-(methylsulfonyl)benzamide], more than 3 µM.
Turning to `CCS(=O)(=O)NC(=O)c1ccc(Oc2ccc(Cl)cc2)cc1` [Example 23, 4-(4-chlorophenoxy)-N-(ethylsulfonyl)benzamide], the IC50 is 3.4 µM.
Next, `CS(=O)(=O)NC(=O)c1cc(F)c(Oc2c(F)cc(F)cc2F)cc1F` [Example 94, 2,5-difluoro-N-(methylsulfonyl)-4-(2,4,6-trifluorophenoxy)benzamide]: more than 3 µM; `CS(=O)(=O)NC(=O)c1c(F)cc(Oc2ccc(Cl)c(C(F)(F)F)c2)cc1F` [Example 31, 4-(4-chloro-3-(trifluoromethyl)phenoxy)-2,6-difluoro-N-(methylsulfonyl)benzamide]: 5.7 µM; `Cc1ccc(Oc2ccc(C(=O)NS(C)(=O)=O)cc2)cc1Cl` [Example 198, 4-(3-chloro-4-methylphenoxy)-N-(methylsulfonyl)benzamide]: 1.4 µM.
In the case of `CC(C)c1ccccc1Oc1cc(F)c(C(=O)NS(C)(=O)=O)cc1F` [Example 93, 2,5-difluoro-4-(2-isopropylphenoxy)-N-(methylsulfonyl)benzamide] it was more than 1 µM; in that of `COc1cc(C)cc(Oc2ccc(C(=O)NS(C)(=O)=O)cc2)c1` [Example 204, 4-(3-methoxy-5-methylphenoxy)-N-(methylsulfonyl)benzamide], 21 µM.
In the case of `CS(=O)(=O)NC(=O)c1cc(F)c(Oc2cc(F)cc(F)c2)cc1F` [Example 128, 4-(3,5-difluorophenoxy)-2,5-difluoro-N-(methylsulfonyl)benzamide] it was 11 µM; in that of `Cc1ccc(Oc2cc(F)c(C(=O)NS(C)(=O)=O)cc2F)cc1Cl` [Example 151, 4-(3-chloro-4-methylphenoxy)-2,5-difluoro-N-(methylsulfonyl)benzamide], 0.52 µM.
Turning to `COc1cc(Cl)ccc1Oc1cc(F)c(C(=O)NS(C)(=O)=O)cc1Cl` [Example 52, 5-chloro-4-(4-chloro-2-methoxyphenoxy)-2-fluoro-N-(methylsulfonyl)benzamide], the IC50 is 0.47 µM.
In the case of `COc1cc(OC(F)(F)F)ccc1Oc1cc(F)c(C(=O)NS(C)(=O)=O)cc1F` [Example 72, 2,5-difluoro-4-[2-methoxy-4-(trifluoromethoxy)phenoxy]-N-(methylsulfonyl)benzamide] it was more than 1 µM.
